According to US20130143927A1, “COMPOUNDS THAT MODULATE INTRACELLULAR CALCIUM” (CalciMedica, Inc., priority 2011, published 2013):

Legend:
[1] = target: T1, recombinant human STIM1 and Orai1 (HEK-293 cells) (Homo sapiens, UniProt Q96D31); experiment: Fluorescence-based assay of store-operated calcium entry in Orai1/STIM1 stable cells; assay type: cell-based; conditions: fluo-4, 50% inhibition of Peak-Basal signal
T1 construct: expressed in transfected cells; host or cells: HEK-293 cells stably expressing both proteins
Method: A. Fluorescence-based Assay of Store-Operated Calcium Entry in Orai1/STIM1 Stable Cells.
Cells stably expressing recombinant human STIM1 and Orai1 are generated by transfecting a human Orai1 expression plasmid (pcDNA3.1-Orai1-cmyc) into HEK-293 cells stably overexpressing human STIM1 (Roos et al. 2005 JCB 169(3): 435-445). Colonies of cells stably expressing both STIM1 and Orai1 proteins are selected and then subcloned by limiting dilution. Cells were cultured at 37° C./6% CO2 in complete medium with 10% FBS and appropriate selection markers.
The day prior to performing the assay Orai1/STIM1 stable cells are plated in 50 μL of complete medium at 90-95% confluence in a 384 well plate. Cells are grown at 37° C./6% CO2 overnight. On the day of the assay, 1.5 μM fluo-4-AM (Invitrogen) in complete medium is added to the cells, which are then incubated for 1 hour at RT. Cells are washed once in Ca^2+-free HBSS (Hank's buffered saline solution) and 35 μl of Ca^2+-free HBSS is added to each well. Test compounds are added to wells in a 10 μL Ca^2+-free HBSS solution, prepared at 4.5× the desired final concentration, and incubated for 30 minutes at RT. The initial baseline fluorescence signal is then measured with a FLIPR^384 (Molecular Devices) plate reader. Calcium entry is initiated by adding 5 μl of 10×CaCl2 (10 mM) in HBSS, and changes in cellular fluorescence are measured with the FLIPR^384 plate reader. In each well, the magnitude of the fluorescence signal as a result of calcium entry into the cell is determined by calculating the difference between the peak fluorescence signal measured after calcium addition and the initial baseline fluorescence signal (designated Peak-Basal). IC50 values are typically calculated as the concentration that inhibited 50% of the Peak-Basal signal.

[2] = system: RBL-2H3 cells; experiment: Fluorescence-based assay of store-operated calcium entry in RBL-2H3 cells; assay type: cell-based; conditions: Rattus norvegicus, store-operated calcium entry after thapsigargin, Fluo-4, 50% inhibition of Upslope
Method: B. Fluorescence-based Assay of Store-Operated Calcium Entry in RBL-2H3 Cells. Cells:
RBL-2H3 cells are obtained from ATCC and maintained in complete medium with 10% FBS at 37° C./6% CO2.
The day prior to performing the assay, RBL-2H3 cells are plated in 50 μL of complete medium in a 384 well plate. Cells are grown at 37° C./6% CO2 overnight and grow to 50-60% confluence by the next day. On the assay day, 1.5 μM Fluo-4-AM dye (Invitrogen) in complete medium is added and incubated for 1 hour at RT. Cells are washed twice in Ca^2+-free HBSS buffer and 35 μL Ca^2+-free HBSS buffer is added to each well. 10 μL of a test compound prepared in a Ca^2+-free HBSS solution at 4.5× of the desired concentration is added to a well and incubated for 5 minutes at RT. 10 μL of thapsigargin prepared in a Ca^2+-free HBSS solution at 5.5× of the desired concentration (5.5 uM) is added to each well and incubated for an additional 25 minutes. The initial baseline fluorescence signal is measured with a FLIPR^384 (Molecular Devices) plate reader. 5 μL of 12× calcium in HBSS (12 mM) is added and changes in cellular fluorescence are measured with the FLIPR^384 plate reader. In each well, the change in the fluorescent signal as a function of time due to calcium entry into the cell is determined by calculating the difference between the fluorescent signal measured 7 seconds after calcium addition and the initial baseline fluorescence signal at time zero (t=0). This parameter is designated Upslope. The IC50 value is calculated as the concentration at which 50% of the Upslope is inhibited.

T1 sequence (Q96D31 whole entry): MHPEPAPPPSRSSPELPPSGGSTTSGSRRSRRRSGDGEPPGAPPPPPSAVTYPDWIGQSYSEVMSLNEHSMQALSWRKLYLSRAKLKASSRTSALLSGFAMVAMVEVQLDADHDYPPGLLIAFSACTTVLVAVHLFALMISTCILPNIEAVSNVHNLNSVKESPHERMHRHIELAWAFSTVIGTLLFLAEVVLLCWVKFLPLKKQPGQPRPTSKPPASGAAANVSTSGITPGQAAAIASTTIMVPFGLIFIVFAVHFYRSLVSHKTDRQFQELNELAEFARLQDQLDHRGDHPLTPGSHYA

Row | Structure (SMILES) | IC50 [1] | IC50 [2]
1 | Cn1nc(C(F)(F)F)cc1-c1ccc(NCc2ccccc2F)s1 [Compound 34, N-(2-fluorobenzyl)-5-(1-methyl-3-(trifluoromethyl)-1H-pyrazol-5-yl)thiophen-2-amine] | > 1200 nM | 600 to 1200 nM
2 | Cc1cc2c(cc1-c1cnc(NCc3c(F)cncc3F)s1)OC(F)(F)O2 [Compound 14, 5-(2,2-difluoro-6-methylbenzo[d][1,3]dioxol-5-yl)-N-((3,5-difluoropyridin-4-yl)methyl)thiazol-2-amine] | 600 to 1200 nM | < 600 nM
3 | Cn1nc(C(F)(F)F)cc1-c1cnc(NCc2c(F)cncc2F)s1 [Compound 11, N-((3,5-difluoropyridin-4-yl)methyl)-5-(1-methyl-3-(trifluoromethyl)-1H-pyrazol-5-yl)thiazol-2-amine] | > 1200 nM | 600 to 1200 nM
4 | Cc1cc2c(cc1-c1ccc(NCc3c(F)cccc3F)s1)OC(F)(F)O2 [Compound 36, 5-(2,2-difluoro-6-methylbenzo[d][1,3]dioxol-5-yl)-N-(2,6-difluorobenzyl)thiophen-2-amine] | 600 to 1200 nM | > 1200 nM
5 | Cn1nc(C(F)(F)F)cc1-c1cnc(NCc2c(F)cccc2F)s1 [Compound 2, N-(2,6-difluorobenzyl)-5-(1-methyl-3-(trifluoromethyl)-1H-pyrazol-5-yl)thiazol-2-amine] | 600 to 1200 nM | < 600 nM

Further lines, results first:

Row | IC50 [1] | IC50 [2] | Structure (SMILES)
6 | 600 to 1200 nM | < 600 nM | Cn1nc(C(F)(F)F)cc1-c1ccc(NCc2c(F)cccc2F)s1 [Compound 35, N-(2,6-difluorobenzyl)-5-(1-methyl-3-(trifluoromethyl)-1H-pyrazol-5-yl)thiophen-2-amine]
7 | < 600 nM | < 600 nM | Cn1nc(C(F)(F)F)cc1-c1cnc(OCc2c(F)cccc2F)s1 [Compound 32, 2-[(2,6-difluorophenyl)methoxy]-5-[1-methyl-3-(trifluoromethyl)pyrazol-5-yl]-1,3-thiazole]
8 | < 600 nM | < 600 nM | Cn1nc(C(F)(F)F)cc1-c1cnc(NCc2ccccc2F)s1 [Compound 4, N-(2-fluorobenzyl)-5-(1-methyl-3-(trifluoromethyl)-1H-pyrazol-5-yl)thiazol-2-amine]
9 | < 600 nM | < 600 nM | Cc1cc2c(cc1-c1cnc(OCc3c(F)cccc3F)s1)OC(F)(F)O2 [Compound 31]
